# Results published in patent US11407792B2, “Regulating electron flow using fragmented proteins” (WILLIAM MARSH RICE UNIVERSITY, priority 2017, dated 2022).
# Experiments:
# sFd-35-ER = experiment: Complementation of E. coli EW11 growth by sFd-35-ER with 4-HT and other estrogen receptor modulators; type: cell-based, Escherichia coli
# Protocol: Growth assay. For all growth experiments, E. coli EW11 were freshly transformed with two plasmids, one encoding the e-donor and acceptor pair (FNR and SIR) and the other encoding either a native Fd, a C42A mutant of Ml Fd that is unable to coordinate a 2Fe-2S cluster, or an engineered Fd. Starter cultures were inoculated using single colonies obtained by selecting for colonies containing both plasmids on LB-agar plates. These starter cultures were grown in deep-well 96-well plates for 18 hours at 37° C. in 1 mL of a non-selective modified M9 medium (M9c), which contained sodium phosphate, dibasic (6.8 g/L), sodium phosphate, monobasic (3 g/L), sodium chloride (0.5 g/L), ammonium chloride (1 g/L), calcium chloride (0.1 mM), magnesium sulfate (10 mM), ferric citrate (24 mg/L), p-aminobenzoic acid (2 mg/L), inositol (20 mg/L), adenine (5 mg/L), uracil (20 mg/L), tryptophan (40 mg/L), tyrosine (1.2 mg/L), and the remaining 18 amino acids (80 mg/L each). For auxotroph complementation analysis, starter cultures that had been grown to stationary phase in M9c were diluted ˜1:100 using a 96-well replicator pin into 100 μL of a selective modified M9 medium (M9sa), which is identical to M9c but lacks cysteine and methionine. […] Optical density (OD) measurements were taken every 10 minutes. To select for the Fd and e-donor/acceptor plasmids, all growth steps included chloramphenicol and streptomycin at 34 μg/mL and 100 μg/mL, respectively.
# To test whether this domain-insertion strategy can be used to diversify the chemical regulation of sFd-35, the ligand-binding domain (LBD) of the human estrogen receptor (ER) was inserted after residue 35 to create sFd-35-ER (FIG. 26E).
# (§1) The activity of sFd-35-ER was evaluated by expressing this protein using an aTc-inducible promoter (FIG. 31B). […] This protein was also expressed as a fusion to RFP (sFd-35-ER-RFP) to evaluate how 4-HT affects protein expression.
# To evaluate how these different modulators affect sFd-35-ER ET, sFd-35-ER growth complementation was evaluated in the presence of agonists, antagonists, and an endocrine disruptor (FIG. 32D).
# sFd-35-ER-RFP = details: 4-HT in ethanol compared to ethanol alone
# Protocol: Fluorescence spectroscopy.
# as §1
# [1] = test system: split Fd fused to estrogen receptor
# [2] = test system: lysates derived from E. coli EW11 expressing FNR and SIR; experiment: Sulfide production assay in cell lysates (sulfidefluor-7 fluorescence); type: biochemical, Escherichia coli; details: no Fd added
# Protocol: Cell lysates. Electrocompetent E. coli EW11 were transformed with the plasmid (pSAC01) that constitutively expresses Zea mays FNR and SIR. Cells were grown to stationary phase at 37° C. and 250 rpm in 2×YTPG medium (16 g/L tryptone, 10 g/L yeast extract, 5 g/L NaCl, 3 g/L KH2PO4, 7 g/L K2HPO4, and 18 g/L glucose) containing 100 μg/mL streptomycin. Cells from overnight cultures were diluted 1:100 in fresh 2×YTPG medium containing streptomycin, grown for 2 hours at 37° C. while shaking at 250 rpm until mid-log phase, and then shifted to 30° C. and grown for an additional 4 hours. […] Protein content in lysates was quantified using Bio-Rad Protein Assay Dye Reagent Concentrate (Bio-Rad), using bovine serum albumin (NEB) as a standard.
# Sulfide production assay. […] Following NADPH or protein addition, reactions were arrayed in a Corning 96 well plate at room temperature (Cost ar #3603), transferred to an Infinite m1000 Pro plate reader (Tecan), and heated to 37° C. and shaken at 250 rpm with fluorescence readings (λex=495 nm, λem=520 nm) every 15 seconds. […]
# SIR activity was monitored in desalted cell lysates using sulfidefluor-7 (Lin et al., 2013), a fluorescent probe for hydrogen sulfide. […]
# sFd-35-ER, sequence (P03372 311-547): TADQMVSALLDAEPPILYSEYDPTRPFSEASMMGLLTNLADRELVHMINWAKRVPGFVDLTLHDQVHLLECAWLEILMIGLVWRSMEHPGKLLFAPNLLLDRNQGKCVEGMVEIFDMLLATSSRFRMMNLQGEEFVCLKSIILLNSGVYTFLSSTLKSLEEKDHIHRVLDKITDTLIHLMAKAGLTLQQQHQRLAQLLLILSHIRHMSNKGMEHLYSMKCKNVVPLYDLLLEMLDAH
# split Fd fused to estrogen receptor, sequence (P03372 311-547 limits assumed): as the sequence (P03372 311-547) above
# sFd-35-ER-RFP, sequence (P03372 311-547 limits assumed): as the sequence (P03372 311-547) above
substance,measurement,setting,value
4-hydroxytamoxifen [4-HT],4-HT concentration at which growth of sFd-35-ER is enhanced significantly above the C42A mutant,sFd-35-ER,≥ 6.25 µM
same,Activation of sFd-35-ER ET (growth complementation),sFd-35-ER,activated
same,"Effect of estrogen receptor modulators on complementation of E. coli EW11 by sFd-35-ER, compared to DMSO alone",sFd-35-ER,significantly enhance growth
same,EC50,"sFd-35-ER; read-out: k1/2 4-HT, complementation of E. coli EW11 by sFd-35-ER",2.11 µM
same,Effect of 4-HT on relative fluorescence of cells expressing sFd-35-ER-RFP,sFd-35-ER-RFP,no significant increase in fluorescence
same,effect of 4-HT addition alone on rate,[1],does not affect rate
same,time after chemical addition at which the higher rate of sulfide production is detectable,[1]; 4-HT added at t=0,≤ 1.5 min
same,sulfide production rate on adding 4-HT alone,[2],not enhanced
